Assay results from patent US20240150301A1, “METHODS OF MODULATING ANDROGEN RECEPTOR CONDENSATES” (ETERN BIOPHARMA (SHANGHAI) CO., LTD., priority 2021, published 2024).
Residue numbers refer to the chain shown, from its start.

Experiments:
[1] = target: T1, AR-mEGFP nuclear puncta in LNCaP cells (Homo sapiens, UniProt P10275); assay: AR phase separation inhibition IC50 testing (nuclear puncta imaging); type: cell-based; conditions: for IC50: LNCaP, compound 3 h before 20 nM DHT, 3 h DHT
T1 construct: expressed in transfected cells; host or cells: LNCaP
T1 sequence (P10275 1-920): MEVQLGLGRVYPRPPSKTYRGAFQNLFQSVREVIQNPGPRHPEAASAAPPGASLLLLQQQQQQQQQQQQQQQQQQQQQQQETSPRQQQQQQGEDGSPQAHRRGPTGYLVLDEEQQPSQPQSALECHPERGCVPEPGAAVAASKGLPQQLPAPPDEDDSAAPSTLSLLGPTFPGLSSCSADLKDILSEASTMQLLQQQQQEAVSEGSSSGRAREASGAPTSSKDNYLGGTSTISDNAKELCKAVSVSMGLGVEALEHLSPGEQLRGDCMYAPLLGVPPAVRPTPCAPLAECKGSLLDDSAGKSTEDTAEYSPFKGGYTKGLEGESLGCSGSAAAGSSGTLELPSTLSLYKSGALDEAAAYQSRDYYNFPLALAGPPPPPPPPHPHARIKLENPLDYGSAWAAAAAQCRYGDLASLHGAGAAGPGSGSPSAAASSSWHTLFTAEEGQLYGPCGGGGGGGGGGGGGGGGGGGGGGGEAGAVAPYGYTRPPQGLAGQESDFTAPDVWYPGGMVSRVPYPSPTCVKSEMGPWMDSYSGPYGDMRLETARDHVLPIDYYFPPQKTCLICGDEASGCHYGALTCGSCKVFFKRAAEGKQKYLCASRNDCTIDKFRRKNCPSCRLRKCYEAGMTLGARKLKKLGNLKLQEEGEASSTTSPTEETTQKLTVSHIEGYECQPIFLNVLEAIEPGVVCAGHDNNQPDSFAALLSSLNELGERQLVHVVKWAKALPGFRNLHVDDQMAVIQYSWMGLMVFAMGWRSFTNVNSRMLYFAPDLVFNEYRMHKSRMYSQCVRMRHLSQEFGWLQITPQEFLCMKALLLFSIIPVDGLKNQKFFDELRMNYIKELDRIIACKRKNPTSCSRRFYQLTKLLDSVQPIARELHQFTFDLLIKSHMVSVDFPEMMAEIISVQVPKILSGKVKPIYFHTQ
Protocol: Nuclear Puncta Imaging for Compounds IC50 Determination • LNCaP cells were cultured in a 10-cm dish. Cells were transfected with AR (AR or AR F877L/T878A)-mEGFP expression plasmids (pMSCV vector, 12 μg plasmid per 10-cm dish). 12 hours after transfection, medium were replaced with steroid hormone-free and phenol red-free RPMI1640 (starvation medium) and continued to starve for another 24 hours. Cells (80 μl, 20,000 per well) were seeded in a 96-well glass bottom plate (Cellvis, P96-1.5H-N) and cultured for another 24 hours. Then cells were incubated with 10× serial-diluted compounds […] for 3 hours before 20 nM DHT stimulation […]. After 3 hours DHT addition, cells were fixed with equal volume pre-warmed 8% PFA for 30 minutes and subsequently replaced with 100 μl PBS. Nuclear puncta images were acquired with Operetta CLS (Perkin Elmer) equipped with 60× water immersion lens (40 fields per well). The images were analyzed with Operetta built-in analysis modules. Nuclei were found from illumination corrected images with find nuclei module (type M) and filtered out low intensity nuclei. Subsequently puncta were first identified using find spot module (type A) and classified to high confident puncta and low confident puncta with PhenoLOGIC machine learning plug-in. For better representation, only high confident puncta were kept. The analyzed image puncta data were exported and statistics were processed with R/Bioconductor. The specific IC50 values were calculated by R/drc package (four-parameter log-logistic function).

AR = target: T2, AR (Homo sapiens, UniProt P10275); assay: ARE-luciferase reporter assay in LNCaP cells (DHT-induced); type: cell-based; conditions: 1 nM DHT, 24 h, normalized to cell viability, read-out: LNCaP ARE-luc IC50
T2 sequence (P10275 1-920 T878A): T1 sequence (P10275 1-920) with T878A
Protocol: The ARE-luciferase reporter plasmid contains functional AREs (androgen response elements) to which AR binds in response to androgen to induce luciferase activity. LNCaP (Cobioer) cells were transiently transfected with the ARE-luciferase reporter in charcoal stripped FBS/phenol red-free RPMI medium prior to treatment for 24 hours. Then DMSO or test compounds with serial diluted concentrations were added one hour prior to the addition of DHT(1 nM). After 24 h of incubation with DHT, cells were lysed and luciferase activity was assayed using the ONE-Glo™ Luciferase Assay System (Promega) and measured using EnVision Multimode Plate Reader, according to manufacturer's instructions. Values were normalized to cell viability determined by CellTiter-Glo® Luminescent Cell Viability Assay Kit (Promega). […] GraphPad Prism graphing software was used to calculate IC50 values.

AR phase separation (FIG. 7) [1]	IC50 [1] [µM]	SMILES	IC50 (AR) [µM]
inhibited AR phase separation	2.5	CC(C)(c1ccc(C#Cc2cnc(NS(C)(=O)=O)nc2)cc1)c1cc(Cl)c(OCCCl)c(C#N)c1 [Compound 60, N-(5-((4-(2-(3-chloro-4-(2-chloroethoxy)-5-cyanophenyl)propan-2-yl)phenyl)ethynyl)pyrimidin-2-yl)methanesulfonamide]	4.7
inhibited AR phase separation	3.6	CC(C)(c1ccc(OCc2ccnc(N=S3(=O)CCNCC3)n2)cc1)c1cc(Cl)c(OCCCl)c(C#N)c1 [Compound 6, 3-chloro-2-(2-chloroethoxy)-5-(2-(4-((2-((1-oxido-1λ^6-thiomorpholin-1-ylidene)amino)pyrimidin-4-yl)methoxy)phenyl)propan-2-yl)benzonitrile]	3.5
did not show inhibition	> 20	CC(C)(c1ccc(OCc2ccnc(NS(C)(=O)=O)n2)cc1)c1cc(Cl)c(OCCCl)c(C#N)c1 [Compound AA, N-(4-((4-(2-(3-chloro-4-(2-chloroethoxy)-5-cyanophenyl)propan-2-yl)phenoxy)methyl)pyrimidin-2-yl) methane sulfonamide, reference compound]	12.6
